# Counter-ions that a name gives are not always drawn.
# Tested on: human gel filtered platelets (GFP)
# Experiment: Inhibition of ADP-induced blood platelet aggregation in gel filtered platelets (Born-type optical aggregometer)
# Format: cell-based
# Conditions: 5 min; human GFP approx. 300,000 platelets/µl; human fibrinogen 0.5mg/ml, Ca2+ 1mM, Mg2+ 0.5mM; compounds incubated 5 minutes at 37°C; ADP 1 x 10⁻⁵M; concentration producing 50% inhibition of platelet aggregation; read-out: IC₅₀
# Experimental: Inhibition of blood platelet aggregation by compounds of the invention was determined according to the following procedure. Citrated whole blood (1 part 3.8% trisodium citrate : 9 parts blood) was obtained from human volunteers, free of medication for at least 10 days prior to collection. The blood was incubated with 0.1mM aspirin and 0.05µM prostacyclin and then centrifuged at 1000g for 4 minutes (20°C). The supernatant platelet rich plasma (PRP) was further centrifuged at 1300g for 10 minutes (20°C) to sediment the platelets. The supernatant was discarded and the pellet washed with a physiological salt solution (HEPES 5mM, NaHCO₃ 12mM, NaCl 140mM, KH₂PO₄ 0.74mM, D-Glucose 5.6mM, KCl 2.82mM and BSA 20g/l, pH 7.4) to remove residual plasma. After washing, the pellet was resuspended in physiological salt solution and then applied to a sepharose CL-2B column, pre-equilibrated with physiological salt solution at room temperature. The platelets (GFP) eluted within the void volume and were diluted to approximately 300,000 platelets/µl in buffer. Purified human fibrinogen (Knight L.C. et al, 1981 Thromb. Haemostasis, 46(3), 593-596) was added to a final concentration of 0.5mg/ml together with Ca2+ and Mg2+ at 1mM and 0.5mM respectively. […] The potency of the compounds may be expressed as an IC₅₀ value defined as the concentration of compound required to produce 50% inhibition of platelet aggregation.
row,Compound,IC50
1,CC(C(=O)O)N1CCC(N2CCN(c3ccc(C(=N)N)cc3)CC2)CC1 (centres unmarked) [Example 26],177 nM
2,"N=C(N)c1ccc(C2CCN(C3CCN(CC(=O)O)CC3)CC2)cc1 [Example 22, trifluoroacetate salt]",71 nM
3,"C[N@+]1(CC(=O)O)CC[C@H](N2CCN(c3ccc(C(=N)N)cc3)CC2)CC1 [Example 16a, trans-4-[4-[4-(Aminoiminomethyl)phenyl]-1-piperazinyl]-1-(2-hydroxy-2-oxoethyl)-1-methylpiperidinium trifluoroacetate salt]",44 nM
4,"NC(=NO)c1ccc(N2CCN(C3CCN(CC(=O)O)CC3)CC2)cc1 [Example 17, 4-[4-[4-[Amino(hydroxyimino)methyl]phenyl]-1-piperazinyl]-1-piperidineacetic acid trifluoroacetate]",5660 nM
5,"Cc1cc(C(=N)N)ccc1N1CCN(C2CCN(CC(=O)O)CC2)CC1 [Example 25, trifluoroacetate salt]",569 nM
6,"CC1CN(c2ccc(C(=N)N)cc2)CCN1C1CCN(CC(=O)O)CC1 (centres unmarked) [Example 20, trifluoroacetate salt]",71 nM
7,"C[C@@H]1CN(CC(=O)O)CC[C@@H]1N1CCN(c2ccc(C(=N)N)cc2)CC1 (relative stereo) [Example 30, cis-4-[4-[4-Aminoiminomethyl)phenyl]-1-piperazinyl]-3-methyl-1-piperidineacetic acid trihydrochloride salt]",23 nM
8,"N=C(N)c1ccc(N2CCN(C3CCN(CC(=O)O)CC3)CC2)nc1 [Example 41, trifluoroacetate salt]",30 nM
9,"CCOC(=O)CN1CCC(N2CCN(c3ccc(C(=N)N)cc3)CC2)CC1 [Example 23, trifluoroacetate salt]",16200 nM
10,"COC(=O)NC(=N)c1ccc(N2CCN(C3CCN(CC(=O)O)CC3)CC2)cc1 [Example 34, 4-[4-[4-[Imino[(methoxycarbonyl)amino]methyl]phenyl]-1-piperazinyl]-1-piperidineacetic acid trifluoroacetate salt]",1600 nM
11,"N=C(N)c1ccc(N2CCN(C3CCN(CC(=O)O)CC3)CC2)c(Br)c1 [Example 24, trifluoroacetate salt]",342 nM
12,"N=C(NCC(F)(F)F)c1ccc(N2CCN(C3CCN(CC(=O)O)CC3)CC2)cc1 [Example 18, 4-[4-[4-[Imino[(2,2,2-trifluoroethyl)amino]methyl]phenyl]-1-piperazinyl]-1-piperidineacetic acid trifluoroacetate salt]",316 nM
13,"C[N@+]1(CC(=O)O)CC[C@H](C2CCN(c3ccc(C(=N)N)cc3)CC2)CC1 [Example 21, trans-4-[1-[4-(Aminoiminomethyl)phenyl]-4-piperidinyl]-1-(2-hydroxy-2-oxoethyl)-1-methylpiperidinium trifluoroacetate salt]",41 nM
14,"N=C(N)c1ccc(N2CCN(C3CCN(CC(=O)O)CC3)CC2)cn1 [Example 19, trifluoroacetate salt]",76 nM

# Same assay, conditions: human GFP approx. 300,000 platelets/µl; human fibrinogen 0.5mg/ml, Ca2+ 1mM, Mg2+ 0.5mM; compounds incubated 5 minutes at 37°C; ADP 1 x 10⁻⁵M; concentration producing 50% inhibition of platelet aggregation; read-out: IC₅₀
row,IC50,Compound
1,2680 nM,4-[4-[4-[(Diethylphosphinyl)amino]iminomethyl]phenyI]-1-piperazinyl]-1- piperidineacetic acid trifluoroacetate salt [Example 36]

# Same assay, conditions: human GFP approx. 300,000 platelets/µl; human fibrinogen 0.5mg/ml, Ca2+ 1mM, Mg2+ 0.5mM; compounds incubated 5 minutes at 37°C; ADP 1 x 10⁻⁵M; concentration producing 50% inhibition of platelet aggregation; trifluoroacetate salt; read-out: IC₅₀
row,IC50,Compound
1,38 nM,"N=C(N)c1ccc(N2CCN(C3CC[N+](CC(=O)O)(Cc4ccccc4)CC3)CC2)cc1 (stereo not drawn) [Example 28, trans-4-[4-[4-(Aminoiminomethyl)phenyl]-1-piperazinyl]-1-(2-hydroxy-2-oxoethyl)-1-(phenylmethyl)piperidinium trifluoroacetate salt]"
2,354 nM,"N=C(N)c1ccc(N2CCN(C3CC[N+](CC(=O)O)(Cc4ccccc4)CC3)CC2)cc1 (stereo not drawn) [Example 29, cis-4-[4-[4-(Aminoiminomethyl)phenyl]-1-piperazinyl]-1-(2-hydroxy-2-oxoethyl)-1-(phenylmethyl)piperidinium trifluoroacetate salt]"

# Reference: patent EP0542363A2 (GLAXO GROUP LIMITED, priority 1991, dated 1993)
